Experimental data as given in ChEMBL document CHEMBL1201862, “PubChem BioAssay data set” (2004).
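96-well plates; 48 h exposure; 5 concentrations. Endpoints by linear interpolation between flanking doses. Not reached: highest tested concentration assigned. GI50 = concentration required for 50% inhibition of growth.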 Activity calls are given as the source filed them. Cut-off read from the data, not from the text of the source: active = GI50 up to about 1.1 µM and inactive = higher.

Columns and labels:
Experiment in all cases: growth of human tumour cells (NCI), 48 h
SK-MEL-2 = system: SK-MEL-2
MDA-MB-435 = system: MDA-MB-435
NCI-H23 = system: NCI-H23
HCC 2998 = system: HCC 2998
U-251 = system: U-251
HT-29 = system: HT-29
OVCAR-4 = system: OVCAR-4
ACHN = system: ACHN
SK-OV-3 = system: SK-OV-3
RXF 393 = system: RXF 393
Malme-3M = system: Malme-3M
HCT-116 = system: HCT-116
UACC-257 = system: UACC-257
KM12 = system: KM12
SW-620 = system: SW-620
HOP-92 = system: HOP-92
UACC-62 = system: UACC-62
SF-295 = system: SF-295
PC-3 = system: PC-3
OVCAR-8 = system: OVCAR-8

| SMILES | GI50 (SK-MEL-2) | GI50 (MDA-MB-435) | GI50 (NCI-H23) | GI50 (HCC 2998) | GI50 (U-251) | GI50 (HT-29) | GI50 (OVCAR-4) | GI50 (ACHN) | GI50 (SK-OV-3) | GI50 (RXF 393) | GI50 (Malme-3M) | GI50 (HCT-116) | GI50 (UACC-257) | GI50 (KM12) | GI50 (SW-620) | GI50 (HOP-92) | GI50 (UACC-62) | GI50 (SF-295) | GI50 (PC-3) | GI50 (OVCAR-8) |
| --- | --- | --- | --- | --- | --- | --- | --- | --- | --- | --- | --- | --- | --- | --- | --- | --- | --- | --- | --- | --- |
| COc1c(C(=O)CC2c3c(cc4oc(C)cc(=O)c4c3OC)OC(=N)C2c2nc3ccccc3[nH]2)c(O)c(OC)c2occc12 (stereo not given) | > 100 µM (inactive) | > 100 µM (inactive) | > 100 µM (inactive) | > 100 µM (inactive) | > 100 µM (inactive) | > 100 µM (inactive) | > 100 µM (inactive) | > 100 µM (inactive) | > 100 µM (inactive) | > 100 µM (inactive) | > 100 µM (inactive) | > 100 µM (inactive) | > 100 µM (inactive) | > 100 µM (inactive) | > 100 µM (inactive) | > 100 µM (inactive) | > 100 µM (inactive) | > 100 µM (inactive) | > 100 µM (inactive) | > 100 µM (inactive) |
| CC(=O)NCCCCN(CCCNC(C)=O)C(=O)OCc1ccccc1 | > 100 µM (inactive) | > 100 µM (inactive) | > 100 µM (inactive) | > 100 µM (inactive) | > 100 µM (inactive) | > 100 µM (inactive) | > 100 µM (inactive) | > 100 µM (inactive) | > 100 µM (inactive) | > 100 µM (inactive) | > 100 µM (inactive) | > 100 µM (inactive) | > 100 µM (inactive) | > 100 µM (inactive) | > 100 µM (inactive) | > 100 µM (inactive) | > 100 µM (inactive) | > 100 µM (inactive) | > 100 µM (inactive) | > 100 µM (inactive) |
| OCCOCCN1CCN(c2nc(N3CCCC3)c3nc(Cl)c(NCc4ccccc4)nc3n2)CC1 | 17.5 µM (inactive) | 11.7 µM (inactive) | 16.3 µM (inactive) | 4.29 µM (inactive) | 12 µM (inactive) | 3.92 µM (inactive) | 15 µM (inactive) | 14 µM (inactive) | 17.2 µM (inactive) | 1.98 µM (inactive) | 15.8 µM (inactive) | 12.8 µM (inactive) | 14.1 µM (inactive) | 10.1 µM (inactive) | 17.7 µM (inactive) | 12.9 µM (inactive) | 14 µM (inactive) | 14.5 µM (inactive) | 13.9 µM (inactive) | 17.4 µM (inactive) |
| CC1=C2C(=C[C@@](C)(CO)[C@@H]2O)C(=O)[C@](C)(O)C12CC2 [ILLUDIN] | 0.0143 µM (active) | 0.0156 µM (active) | 0.0052 µM (active) | 0.013 µM (active) | 0.00213 µM (active) | 0.00341 µM (active) | 0.00667 µM (active) | 0.00849 µM (active) | 0.00612 µM (active) | 0.00664 µM (active) | 0.00889 µM (active) | 0.00386 µM (active) | 0.0145 µM (active) | 0.0212 µM (active) | 0.00305 µM (active) | 0.0232 µM (active) | 0.0129 µM (active) | 0.00251 µM (active) | 0.0143 µM (active) | 0.0133 µM (active) |
| Clc1ccc(C2=C(c3ccccc3)C(c3ccc(Cl)cc3)N3C(=N[C@H]4CCCC[C@@H]43)N2)cc1 (stereo not given in full) | 16.4 µM (inactive) | 14.5 µM (inactive) | 14.2 µM (inactive) | 3.08 µM (inactive) | 11.3 µM (inactive) | 3.27 µM (inactive) | 9.2 µM (inactive) | 11.2 µM (inactive) | 17.1 µM (inactive) | 13.9 µM (inactive) | 16.5 µM (inactive) | 4.08 µM (inactive) | 14.9 µM (inactive) | 9.4 µM (inactive) | 8.05 µM (inactive) | 9.59 µM (inactive) | 16.7 µM (inactive) | 11.6 µM (inactive) | 10.2 µM (inactive) | 13.7 µM (inactive) |
